Measured values as given in patent US11339171B2, “MDM2 inhibitors” (Gan & Lee Pharmaceuticals, priority 2017, dated 2022).
pIC50: −log10 of the molar value. “And” between values parts separate entries of the source, which are not always exact repeats. Identical values can stand only once. Like-named read-outs stand apart in the source and are kept apart here.

Tests used:
MDM2 = biological target: T1, MDM2 (Homo sapiens, UniProt Q00987); experiment: Inhibition test of MDM2-P53 (GST-MDM2, Biotin-P53, Anti-GST-Tb, SA-XL665); format: binding
T1 construct: made in house
T1 sequence (Q00987 whole entry): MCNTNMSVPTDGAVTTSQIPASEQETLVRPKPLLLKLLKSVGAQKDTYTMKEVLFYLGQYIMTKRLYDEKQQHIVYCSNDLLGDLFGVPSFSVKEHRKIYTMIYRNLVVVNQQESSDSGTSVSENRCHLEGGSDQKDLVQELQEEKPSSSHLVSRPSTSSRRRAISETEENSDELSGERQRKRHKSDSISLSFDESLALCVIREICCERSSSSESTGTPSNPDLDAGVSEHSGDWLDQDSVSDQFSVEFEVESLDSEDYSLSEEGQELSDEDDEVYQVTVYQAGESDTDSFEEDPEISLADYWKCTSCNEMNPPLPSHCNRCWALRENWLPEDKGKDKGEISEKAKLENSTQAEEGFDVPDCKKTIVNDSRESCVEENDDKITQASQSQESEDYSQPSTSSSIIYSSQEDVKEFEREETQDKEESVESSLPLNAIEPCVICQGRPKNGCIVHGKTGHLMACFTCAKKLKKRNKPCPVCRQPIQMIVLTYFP
In short: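 Compounds, serially diluted 5-fold (twelve concentrations), were shaken for 90 min at 25° C with a mix of GST-MDM2 (4 nM final), Biotin-P53, anti-GST-Tb and SA-XL665. Buffer: 1×PBS, 0.1% BSA, 5 mM DTT, 1 mM AEBSF; signal read on a microplate reader.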

[1] = Pharmacokinetics in ICR mice after intravenous and intragastric administration; format: in vivo; conditions: for MRT last: read-out: MRT(0-t); for MRT inf: read-out: MRT(0-∞); for Vd: read-out: Vz
Experimental: Experimental Example 3 Determination of the Pharmacokinetics of the Mdm2 Inhibitors of the Present Invention in Mice
ICR mice were used as the test animals, and the concentrations of the drugs in plasma of mice at different time points after intravenous administration and intragastric administration of the representative compounds were measured by a LC/MS/MS method, so as to study the pharmacokinetic behavior of the compounds of the present invention in mice and evaluate the pharmacokinetic characteristics thereof.
Some compounds prepared in Examples 1-180 of the present invention.
The control drug HDM201 was prepared by the method disclosed in patent No. CN104203952A.
Healthy adult ICR mice, male, 6-9 weeks old, weighing 20-30 g, purchased from Shanghai Xipuer-Bikai Laboratory Animal Co., Ltd., Animal Production License No.: SCXK (HU) 2013-0016
3.2.3 Preparation of Test Drugs
Intragastric or intravenous administration: an appropriate amount of sample was weighed, dissolved in 5% DMSO+40% PEG400+55% (10% HP-β-CD in Saline) to prepare a 0.5 mg/ml solution for intragastric or intravenous administration.
3.2.4 Administration of Test Drugs
Intravenous administration: for each test compound, 3 male ICR mice were administered intravenously at a dose of 2 mg/kg and an administration volume of […] after fasting overnight.
Intragastric administration: for each test compound, 3 male ICR mice were administered intragastrically at a dose of 5 mg/kg and an administration volume of […] after fasting overnight.
3.3 Experimental Operation
The collected plasma was stored at −80° C. before analysis. The plasma sample was analyzed by LC-MS/MS, and the sample was pretreated by protein precipitation method. The linear range of sample analysis was 1 to 2000 ng/ml. The lowest quantification limit was 1 ng/mL. WinNonlin (Pharsight, USA) was used to calculate the following pharmacokinetic parameters: area under the curve AUC(0-t), area under the curve AUC(0-∞), half-life t1/2, retention time MRT(0-∞), blood drug concentration Cmax, time taken to reach the peak blood drug concentration Tmax, bioavailability F, apparent volume of distribution Vz, and clearance rate CL.

[2] = test system: human osteosarcoma cell line SJSA-1; experiment: Inhibition of proliferation of human osteosarcoma cell line SJSA-1 (DAPI staining, In Cell Analyzer); conditions: Homo sapiens, SJSA-1, 72 h, read-out: IC50 (nM), inhibitory activity on proliferation of human osteosarcoma cell line SJSA-1, SJSA-1, incubated 72 h
[3] = IV 2 mg/kg, ICR mice, individual animal, 2 mg/kg
[4] = PO 5 mg/kg, ICR mice, individual animal, 5 mg/kg
[5] = male, ICR, mouse, plasma, iv, 2 mg/kg, IV 2 mg/kg, ICR mice, Mean
[6] = male, ICR, mouse, plasma, iv, 2 mg/kg, IV 2 mg/kg, ICR mice, individual animal
[7] = male, ICR, mouse, plasma, po, 5 mg/kg, PO 5 mg/kg, ICR mice, Mean
[8] = male, ICR, mouse, plasma, po, 5 mg/kg, PO 5 mg/kg, ICR mice, individual animal

Structure (SMILES): COc1ncc(-c2nc3c(n2C(C)C)[C@@]2(C(=O)Nc4cc(Cl)ccc42)N(c2cc(Cl)ccc2C)C3=O)c(OC)n1 [Example S-2, (S)-6-chloro-5′-(5-chloro-2-methylphenyl)-2′-(2,4-dimethoxypyrimidin-5-yl)-3′-isopropyl-3′H-spiro[dihydroindole-3,4′-pyrrolo[3,4-d]imidazole]-2,6′(5′H)-dione]
- pIC50 (MDM2): 8.95
- AUC(0-t) [1, 3]: 1477.86 ng·h/mL and 1362.57 ng·h/mL
- AUC(0-∞) [1, 3]: 1494.93 ng·h/mL and 1392.31 ng·h/mL
- CL [1, 3]: 22.2977 mL/min/kg and 23.941 mL/min/kg
- Cmax [1, 3]: 456.11 ng/mL and 492.38 ng/mL
- MRT(0-t) [1, 3]: 1.51 h
- MRT(0-∞) [1, 3]: 1.54 h and 1.64 h
- Tmax [1, 3]: 0.50 h and 1.00 h and 0.08 h
- Vz [1, 3]: 1.80436 L/kg and 2.29183 L/kg
- t1/2 [1, 3]: 0.93 h and 1.11 h
- F* ([1]; PO 5 mg/kg vs IV 2 mg/kg, ICR mice): 101.81%
- AUC(0-t) [1, 4]: 3883.23 ng·h/mL and 4136.52 ng·h/mL
- AUC(0-∞) [1, 4]: 4100.77 ng·h/mL and 4259.08 ng·h/mL
- Cmax [1, 4]: 729.77 ng/mL and 804.59 ng/mL
- MRT(0-t) [1, 4]: 2.87 h and 2.76 h
- MRT(0-∞) [1, 4]: 3.28 h and 2.97 h
- Tmax [1, 4]: 1.00 h
- t1/2 [1, 4]: 1.83 h and 1.50 h
- AUC(0-inf) [1, 5]: 1480 ng·h/mL
- clearance [1, 5]: 22.5 mL/min/kg
- AUC(0-t) ([1]; male, ICR, mouse, plasma, iv, 2 mg/kg, IV 2 mg/kg, ICR mice, Mean, read-out: AUC(0-t)): 1460 ng·h/mL
- Cmax ([1]; male, ICR, mouse, plasma, iv, 2 mg/kg, IV 2 mg/kg, ICR mice, Mean, read-out: Cmax): 475 ng/mL
- MRT last [1, 5]: 1.48 h
- MRT inf [1, 5]: 1.56 h
- Tmax ([1]; male, ICR, mouse, plasma, iv, 2 mg/kg, IV 2 mg/kg, ICR mice, Mean, read-out: Tmax): 0.528 h
- Vd [1, 5]: 1.88 L/kg
- half-life ([1]; male, ICR, mouse, plasma, iv, 2 mg/kg, IV 2 mg/kg, ICR mice, Mean, read-out: t1/2 (converted)): 0.96 h
- AUC(0-inf) [1, 6]: 1560 ng·h/mL
- clearance [1, 6]: 21.3 mL/min/kg
- AUC(0-t) ([1]; male, ICR, mouse, plasma, iv, 2 mg/kg, IV 2 mg/kg, ICR mice, individual animal, read-out: AUC(0-t)): 1550 ng·h/mL
- Cmax ([1]; male, ICR, mouse, plasma, iv, 2 mg/kg, IV 2 mg/kg, ICR mice, individual animal, read-out: Cmax): 477 ng/mL
- MRT last [1, 6]: 1.47 h
- MRT inf [1, 6]: 1.51 h
- Vd [1, 6]: 1.55 L/kg
- half-life ([1]; male, ICR, mouse, plasma, iv, 2 mg/kg, IV 2 mg/kg, ICR mice, individual animal, read-out: t1/2 (converted)): 0.84 h
- AUC(0-inf) [1, 7]: 3870 ng·h/mL
- AUC(0-t) ([1]; male, ICR, mouse, plasma, po, 5 mg/kg, PO 5 mg/kg, ICR mice, Mean, read-out: AUC(0-t)): 3730 ng·h/mL
- Cmax ([1]; male, ICR, mouse, plasma, po, 5 mg/kg, PO 5 mg/kg, ICR mice, Mean, read-out: Cmax): 730 ng/mL
- MRT last [1, 7]: 2.84 h
- MRT inf [1, 7]: 3.12 h
- Tmax ([1]; male, ICR, mouse, plasma, po, 5 mg/kg, PO 5 mg/kg, ICR mice, Mean, read-out: Tmax): 1.67 h
- half-life ([1]; male, ICR, mouse, plasma, po, 5 mg/kg, PO 5 mg/kg, ICR mice, Mean, read-out: t1/2 (converted)): 1.59 h
- AUC(0-inf) [1, 8]: 3250 ng·h/mL
- AUC(0-t) ([1]; male, ICR, mouse, plasma, po, 5 mg/kg, PO 5 mg/kg, ICR mice, individual animal, read-out: AUC(0-t)): 3170 ng·h/mL
- Cmax ([1]; male, ICR, mouse, plasma, po, 5 mg/kg, PO 5 mg/kg, ICR mice, individual animal, read-out: Cmax): 656 ng/mL
- MRT last [1, 8]: 2.89 h
- MRT inf [1, 8]: 3.09 h
- Tmax ([1]; male, ICR, mouse, plasma, po, 5 mg/kg, PO 5 mg/kg, ICR mice, individual animal, read-out: Tmax): 2 h
- half-life ([1]; male, ICR, mouse, plasma, po, 5 mg/kg, PO 5 mg/kg, ICR mice, individual animal, read-out: t1/2 (converted)): 1.45 h
- AUC(0-t) ([1]; male, ICR, mouse, plasma, po, 5 mg/kg, oral intragastric administration 5 mg/kg, read-out: AUC0-t): 3730 ng·h/mL
- half-life ([1]; male, ICR, mouse, plasma, po, 5 mg/kg, oral intragastric administration 5 mg/kg, read-out: half-life (converted)): 1.59 h
- bioavailability ([1]; male, ICR, mouse, plasma, oral intragastric administration 5 mg/kg, read-out: bioavailability): 102%
- IC50 [2]: 7.4 nM
